IC50 data for 21 compounds are collected here from patent publication US8026257B2 (Bristol-Myers Squibb Company, priority 2007, dated 2011).

The structures appear in SMILES notation.

In test [1] the target is T1, NK-1 (Homo sapiens, UniProt P25103).
T1 construct: 30 ul/well of a 2×U373 membrane preparation
As to the kind of experiment: NK1 radioligand binding assay ([125I]Substance P, U373 membranes). Particulars: U373 cell membranes, 200 pM [125I]Substance P, 1 hour at room temperature. On the procedure: (§1) NK-1 Binding assay. Crude membrane suspensions were prepared for the NK1 and SERT radioligand binding assays from U373 cells or recombinant HEK-293 cells expressing hSERT, respectively. Cells were harvested from T-175 flasks as follows. The medium is removed from the flasks and the cells rinsed with HBSS without Ca and without Mg. The cells are then incubated for 5-10 minutes in 10 mM Tris-Cl, pH 7.5, 5 mM EDTA before the cells are lifted with a combination of pipetting and scraping, as needed. To prepare membranes, the cell suspension is collected into centrifuge bottles and homogenized for 30 seconds with a Polytron homogenizer. The suspension is centrifuged for 30 min@32,000×g, 4° C., then the supernatant is decanted and the pellet resuspended and homogenized in 50 mM Tris-Cl, pH 7.5, 1 mM EDTA for 10 seconds. The suspension is then centrifuged again for 30 min@32,000×g, 4° C. The supernatant is decanted and the pellet resuspended in 50 mM Tris-Cl, pH 7.5, 1 mM EDTA and briefly homogenized. A Bradford assay (Bio-rad) is performed and the membrane preparation diluted to 2 mg/ml with 50 mM Tris-Cl, pH 7.5, 1 mM EDTA. Aliquots are prepared, and then frozen and stored at −80° C.
NK1 radioligand binding assay. Compounds are dissolved in 100% DMSO at a concentration 100× the desired highest assay concentration, serially diluted 1:3 in 100% DMSO, and 0.6 ul/well of each solution is dispensed to a Nunc polypropylene, round bottom, 384 well plate. 100% inhibition is defined with 0.6 ul/well of 1 mM L-733,060 (Sigma L-137) dissolved in DMSO. 30 ul/well of a 2×U373 membrane preparation (267 ug/ml in 100 mM Tris-Cl, pH 7.5, 6 mM MgCl2, 0.2% (v/v) Sigma mammalian protease inhibitor cocktail (Sigma P-8340), and 4 ug/ml chymostatin, Sigma C-7268) and 30 ul/well of a 2× radioligand solution (400 pM [^125I]Substance P (Perkin ElmerNEX-190) in 1% (w/v) BSA (Sigma A-2153), 0.1 mg/ml bacitracin, Sigma B-0125) are added to the well and the reaction incubated for 1 hour at room temperature. The contents of the assay plate are then transferred to a Millipore MultiscreenHTS GF/B filter plate which has been pretreated with 0.5% PEI for at least one hour. The plate is vacuum filtered and washed with 7 washes of 100 ul/well of 20 mM Tris-Cl, pH 7.5, 0.5% (w/v) BSA chilled to 4° C. The filtration and washing is completed in less than 90 s. The plates are air-dried overnight, 12 ul/well of MicroScint scintillation fluid added, and the plates counted in a Trilux.
(§2) Data analysis. The raw data are normalized to percent inhibition using control wells defining 0% (DMSO only) and 100% (selective inhibitor) inhibition which are run on each plate. Each plate is run in triplicate, and the concentration response curve thus generated is fit using the four-parameter dose response equation, Y=Bottom+(Top-Bottom)/(1+10^((LogIC50−X)*HillSlope)) in order to determine the IC50 value for each compound. The radioligand concentration chosen for each assay corresponds to the Kd concentration determined through saturation binding analysis for each assay.

Test [2] has as its target hSERT (Homo sapiens, UniProt P31645). As to the kind of experiment: SERT radioligand binding assay ([125I]RTI-55, HEK-hSERT membranes). Particulars: HEK-293 hSERT membranes, 260 pM [125I]RTI-55, 1 hour at room temperature; read-out: SERT IC50. How it is done: as §1
SERT radioligand binding assay. Compounds are dissolved in 100% DMSO at a concentration 100× the desired highest assay concentration, serially diluted 1:3 in 100% DMSO, and 0.4 ul/well of each solution is dispensed to a Nunc polypropylene, round bottom, 384 well plate. 100% inhibition is defined with 0.4 ul/well of 1 mM fluoxetine (Sigma F-132) dissolved in DMSO. 20 ul/well of a 2× HEK-hSERT membrane preparation (15 ug/ml in 50 mM Tris-Cl, pH 7.5, 120 mM NaCl, 5mM KCl) and 20 ul/well of a 2× radioligand solution (520 pM [^125I]RTI-55 (Perkin-Elmer NEX-272) in 50 mM Tris-Cl, pH 7.5, 120 mM NaCl, 5mM KCl) are added to each well and the reaction incubated for 1 hour at room temperature. The contents of the assay plate are then transferred to a Millipore MultiscreenHTs GF/B filter plate which has been pretreated with 0.5% PEI for at least one hour. The plate is vacuum filtered and washed with 7 washes of 100 ul/well of 50 mM Tris-Cl, pH 7.5, 120 mM NaCl, 5 mM KCl chilled to 4° C. The filtration and washing is completed in less than 90 s. The plates are air-dried overnight, 12 ul/well of MicroScint scintillation fluid added, and the plates counted in a Trilux.
as §2

T1 sequence (P25103 whole entry): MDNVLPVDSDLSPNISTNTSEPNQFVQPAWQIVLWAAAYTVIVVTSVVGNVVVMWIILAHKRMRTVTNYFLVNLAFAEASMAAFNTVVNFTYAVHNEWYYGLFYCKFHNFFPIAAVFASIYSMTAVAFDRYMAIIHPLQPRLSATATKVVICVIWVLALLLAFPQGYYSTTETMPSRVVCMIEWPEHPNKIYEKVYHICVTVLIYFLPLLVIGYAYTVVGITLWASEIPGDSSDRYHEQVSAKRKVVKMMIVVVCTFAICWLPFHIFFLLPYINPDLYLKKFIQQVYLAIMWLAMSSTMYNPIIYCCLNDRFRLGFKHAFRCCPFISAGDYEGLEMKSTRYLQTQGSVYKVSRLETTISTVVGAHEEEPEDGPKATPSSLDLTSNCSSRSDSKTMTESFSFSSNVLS
Sequence of hSERT (P31645 whole entry): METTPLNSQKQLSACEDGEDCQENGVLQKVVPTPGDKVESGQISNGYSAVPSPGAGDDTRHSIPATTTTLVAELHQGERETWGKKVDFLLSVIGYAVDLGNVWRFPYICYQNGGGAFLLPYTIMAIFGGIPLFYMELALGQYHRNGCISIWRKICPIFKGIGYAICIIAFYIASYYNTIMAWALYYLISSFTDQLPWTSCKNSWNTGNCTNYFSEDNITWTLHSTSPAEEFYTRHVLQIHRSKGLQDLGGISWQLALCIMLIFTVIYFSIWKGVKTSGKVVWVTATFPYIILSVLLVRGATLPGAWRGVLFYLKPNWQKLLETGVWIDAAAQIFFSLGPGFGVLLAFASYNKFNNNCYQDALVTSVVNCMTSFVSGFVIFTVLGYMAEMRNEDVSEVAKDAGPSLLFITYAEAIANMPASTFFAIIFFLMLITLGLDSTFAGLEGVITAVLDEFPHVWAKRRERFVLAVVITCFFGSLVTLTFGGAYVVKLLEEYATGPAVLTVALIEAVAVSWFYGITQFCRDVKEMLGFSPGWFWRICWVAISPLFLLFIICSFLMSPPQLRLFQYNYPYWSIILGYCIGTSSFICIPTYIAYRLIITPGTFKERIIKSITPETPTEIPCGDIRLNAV

For the compound `CC(OCC1(c2ccccc2)CCNCC1)c1cc(C(F)(F)F)cc2cn[nH]c12` (racemic) [Example 20, (±)-7-(1-((4-Phenylpiperidin-4-yl)methoxy)ethyl)-5-(trifluoromethyl)-1H-indazole], the IC50 in test [1] and in test [2] was 0.01 to 100 nM each time.
For `CC(OCC1(c2ccccc2)CCN(C)CC1)c1cc(C(F)(F)F)cc2cn[nH]c12` (racemic) [Example 21, (±)-7-(1-((1-Methyl-4-phenylpiperidin-4-yl)methoxy)ethyl)-5-(trifluoromethyl)-1H-indazole], the IC50 in test [1] and in test [2] was 0.01 to 100 nM each time.
Regarding `CC(OCC1(c2ccccc2)CCNCC1)c1cc(Cl)cc2cn[nH]c12` (racemic) [Example 38, (±)-5-Chloro-7-(1-((4-phenylpiperidin-4-yl)methoxy)ethyl)-1H-indazole], the IC50 in test [1] and in test [2] was 0.01 to 100 nM throughout.
`CC(OCC1(c2ccccc2)CCN(C)CC1)c1cc(Cl)cc2cn[nH]c12` (racemic) [Example 39, (±)-5-Chloro-7-(1-((1-methyl-4-phenylpiperidin-4-yl)methoxy)ethyl)-1H-indazole]: the 50% inhibitory concentration (IC50) in test [1] and in test [2] was 0.01 to 100 nM in each case.
Take `CC(OCC1(c2ccccc2)CCNCC1)c1cc(Cl)cc2cnn(C)c12` (racemic) [Example 40, (±)-5-Chloro-1-methyl-7-(1-((4-phenylpiperidin-4-yl)methoxy)ethyl)-1H-indazole]: the half-inhibitory concentration (IC50) in test [1] and in test [2] was 0.01 to 100 nM throughout.
Consider `CC(OCC1(c2ccccc2)CCN(C)CC1)c1cc(C(F)(F)F)cc2c(C#N)n[nH]c12` (racemic) [Example 42, (±)-7-(1-((1-methyl-4-phenylpiperidin-4-yl)methoxy)ethyl)-5-(trifluoromethyl)-1H-indazole-3-carbonitrile], for which the results for the half-maximal inhibitory concentration (IC50) in test [1] and in test [2] were 0.01 to 100 nM and 100 to 300 nM, respectively.
For `Cc1n[nH]c2c(C(C)OCC3(c4ccccc4)CCNCC3)cc(C(F)(F)F)cc12` (racemic) [Example 43, (±)-3-Methyl-7-(1-((4-phenylpiperidin-4-yl)methoxy)ethyl)-5-(trifluoromethyl)-1H-indazole] the same measures were 0.01 to 100 nM and 0.01 to 100 nM.
For `Cc1n[nH]c2c(C(C)OCC3(c4ccccc4)CCN(C)CC3)cc(C(F)(F)F)cc12` (racemic) [Example 44, (±)-3-Methyl-7-(1-((1-methyl-4-phenylpiperidin-4-yl)methoxy)ethyl)-5-(trifluoromethyl)-1H-indazole] the same measures were 0.01 to 100 nM and 0.01 to 100 nM.
With `CC(OCC1(c2ccc(F)cc2)CCN(C)CC1)c1cc(Br)cc2cn[nH]c12` (racemic) [Example 46, (±)-5-Bromo-7-(1-((4-(4-fluorophenyl)-1-methylpiperidin-4-yl)methoxy)ethyl)-1H-indazole], the half-inhibitory concentration (IC50) in test [1] and in test [2] was 0.01 to 100 nM throughout.
In the case of `CC(OCC1(c2ccc(F)cc2)CCN(C)CC1)c1cc(C2CC2)cc2cn[nH]c12` (racemic) [Example 47, (±)-5-Cyclopropyl-7-(1-((4-(4-fluorophenyl)-1-methylpiperidin-4-yl)methoxy)ethyl)-1H-indazole], the 50% inhibitory concentration (IC50) in test [1] and in test [2] was 0.01 to 100 nM each time.
On to `CC(OCC1(c2ccc(F)cc2)CCN(C)CC1)c1cc(C#N)cc2cn[nH]c12` (racemic) [Example 48, (±)-7-(1-((4-(4-Fluorophenyl)-1-methylpiperidin-4-yl)methoxy)ethyl)-1H-indazole-5-carbonitrile], for which the IC50 in test [1] and in test [2] was 0.01 to 100 nM throughout.
As to `Cc1cc(C(C)OCC2(c3ccc(F)cc3)CCN(C)CC2)c2[nH]ncc2c1` (racemic) [Example 49, (±)-7-(1-((4-(4-Fluorophenyl)-1-methylpiperidin-4-yl)methoxy)ethyl)-5-methyl-1H-indazole], the IC50 in test [1] and in test [2] was 0.01 to 100 nM in each case.
Turning to `CC(OCC1(c2ccc(F)cc2)CCN(C)CC1)c1cc(N2CCOCC2)cc2cn[nH]c12` (racemic) [Example 50, (±)-4-7-(1-((4-(4-Fluorophenyl)-1-methylpiperidin-4-yl)methoxy)ethyl)-1H-indazole-5-yl)morpholino], the IC50 in test [1] lay within 100 to 300 nM; in test [2], 0.01 to 100 nM.
On to `COc1cc(C(C)OCC2(c3ccc(F)cc3)CCN(C)CC2)c2[nH]ncc2c1` (racemic) [Example 52, (±)-7-(1-((4-(4-Fluorophenyl)-1-methylpiperidin-4-yl)methoxy)ethyl)-5-methoxy-1H-indazole], for which the IC50 in test [1] and in test [2] was 0.01 to 100 nM in each case.
On to `CC(OCC1(c2ccc(F)cc2)CCN(C)CC1)c1cc(F)cc2cn[nH]c12` (racemic) [Example 53, (±)-5-Fluoro-7-(1-((4-(4-fluorophenyl)-1-methylpiperidin-4-yl)methoxy)ethyl)-1H-indazole], for which the concentration for half-maximal inhibition (IC50) in test [1] and in test [2] was 0.01 to 100 nM each time.
With `Cc1n[nH]c2c(C(C)OCC3(c4ccc(F)cc4)CCN(C)CC3)cc(Cl)cc12` (racemic) [Example 55, (±)-5-Chloro-7-(1-((4-(4-fluorophenyl)-1-methylpiperidin-4-yl)methoxy)ethyl)-3-methyl-1H-indazole], the half-maximal inhibitory concentration (IC50) in test [1] and in test [2] was 0.01 to 100 nM throughout.
With `CC(OCC1(c2ccc(F)cc2)CCN(C)CC1)c1cc(Cl)cc2c(C3CC3)n[nH]c12` (racemic) [Example 56, (±)-5-Chloro-3-cyclopropyl-7-(1-((4-(4-fluorophenyl)-1-methylpiperidin-4-yl)methoxy)ethyl)-1H-indazole], the half-inhibitory concentration (IC50) in test [1] and in test [2] was 0.01 to 100 nM each time.
`CC(OCC1(c2ccc(F)cc2)CCN(C)CC1)c1cc(Cl)cc2c(Br)n[nH]c12` (racemic) [Example 57, (±)-3-Bromo-5-chloro-7-(1-((4-(4-fluorophenyl)-1-methylpiperidin-4-yl)methoxy)ethyl)-1H-indazole]: the 50% inhibitory concentration (IC50) in test [1] and in test [2] was 0.01 to 100 nM throughout.
Regarding `CC(OCC1(c2ccc(F)cc2)CCN(C)CC1)c1cc(Cl)cc2cn(C3CC3)nc12` (racemic) [Example 58, (±)-5-Chloro-2-cyclopropyl-7-(1-((4-(4-fluorophenyl)-1-methylpiperidin-4-yl)methoxy)ethyl)-2H-indazole], the IC50 in test [1] and in test [2] was 0.01 to 100 nM throughout.
Turning to `CC(OCC1(c2ccc(F)cc2)CCN(C)CC1)c1cc(Cl)cc2c(Cl)n[nH]c12` (racemic) [Example 59, (±)-3,5-Dichloro-7-(1-((4-(4-fluorophenyl)-1-methylpiperidin-4-yl)methoxy)ethyl)-1H-indazole], the IC50 in test [1] and in test [2] was 0.01 to 100 nM each time.
With `C[C@@H](OCC1(c2ccc(F)cc2)CCN(C)CC1)c1cc(Cl)cc2c(Cl)n(CC(F)(F)F)nc12` [Example 117, (R)-3,5-dichloro-7-(1-((4-(4-fluorophenyl-1-methyl)piperidine-4-yl)methoxy)ethyl)-2-(2,2,2-trifluoroethyl)-1H-indazole], the IC50 in test [1] fell in the range of 0.01 to 100 nM.
